Assay results from patent US20200129472A1, “COMPOSITIONS AND METHODS FOR THE TREATMENT OF PERIPHERAL ARTERY DISEASE” (BOARD OF REGENTS OF THE UNIVERSITY OF NEBRASKA, priority 2017, published 2020).
“Also recorded” adds a separate entry of the source.

Tested on: rat model of peripheral arterial disease (PAD rats, femoral artery occlusion)
Test: Exercise intolerance test (motorized treadmill) in PAD rat model after epidural delivery of RTX
Type: in vivo
Excerpt: Catheter-based femoral artery occlusion was created by placing a modified PE50 catheter (its cavity filled with solid agarose) between common iliac artery and left femoral artery to interrupt hindlimb blood supply. The whole procedure is similar to the telemetry implant surgery. Generally, rats were anesthetized using a 2%-3% isoflurane:oxygen mixture. A warm water blanket was used to provide intra-operative heat support to prevent hypothermia. Rats were placed in the prone position and the surgical site (i.e., the femoral area) was cleared of hair, prepared with iodine or chlorhexidine, and the femoral artery was exposed. After a small incision was made, a modified PE50 catheter was placed into the femoral artery and advanced about 3.5 cm to the iliac artery at the aortic bifurcation. The distal end of the femoral artery was ligated with 4-0 Dexon suture. The skin was closed with external interrupted 4-0 or 3-0 prolene suture, which were removed in 10-14 days after the surgery.
Exercise testing for determination of intolerance time was performed in a motorized treadmill equipped with an electrical grid at the end of the lane. The animals were initially acclimated to the treadmill environment at a low speed (13 m/min, 0% grade) for 6 minutes. Then, data was recorded of the exercise duration and distance at the speed of the treadmill of 13 m/minute (0% grade) and increased of 3 m/minute each 2 minutes until exhaustion. Exhaustion was defined operationally as the time at which the rat was unable, or refused, to maintain its running speed for more than 15 seconds despite encouragement by mild electrical stimulation. The maximal speed and running distance were recorded when exhaustion occurred. Two methods were used to measure the exercise intolerance time in sham, PAD and PAD+RTX rats. With the first method, individual rats were run with 90%, 75%, 50% and 25% of its own maximal speed. The exercise intolerance time corresponding to individual running intensity was recorded and compared among groups. With the second method, a fixed running speed (37 m/minute) was used to run all rats among groups to get their exercise intolerance time.
To deplete skeletal muscle afferent neuron soma (L4-L5 DRGs), rats were anesthetized using 2%-3% isoflurane:oxygen mixture. Rats were placed in the prone position and the surgical site was cleared of hair, prepared with iodine or chlorhexidine. A small midline incision was made in the region of the T13-L1 thoracic vertebrae. Following dissection of the superficial muscles, a small hole (approximately 3 mm*3 mm) was made in the left side of T13 vertebral (ipsilateral). A polyethylene catheter (PE-10) was inserted into the subarachnoid space via left hole and gently advanced about 4.0 cm to the left L5 level in which the first injection (6 μg/ml, 10 μl) was made at a very slow speed to minimize the diffusion of RTX. Then the catheter was pulled back to left L4 to perform another injection (10 μl/each). Then the catheter was held for 15 minutes and then withdrawn. After that, silicon gels were used to seal the hole in the T13 vertebral. The skin overlying the muscle was closured by 3-0 polypropylene suture. Simple interrupted sutures were used to close the skin. Skin suture were removed 10-14 days after surgery. Betadine was applied to the wound and the rats were allowed to recover from the anesthesia.
The therapeutic efficacy of resiniferatoxin was tested in a in a rat model of peripheral arterial disease. As explained above, resiniferatoxin was administered to PAD rats by lumbar epidural administration at the time of femoral arterial occlusion. The resiniferatoxin (6 μg/ml, 10 μl/per ganglia) was injected between the ipsilateral L4 and L5 vertebrae into the epidural space at a concentration of 10 μl per ganglion. Healthy rats with sham treatment were also used as a positive control.

C=C(C)[C@]12C[C@@H](C)[C@@]34O[C@@](Cc5ccccc5)(OC1C3C=C(COC(=O)Cc1ccc(O)c(OC)c1)C[C@]1(O)C(=O)C(C)=CC41)O2 (stereo partly drawn) [resiniferatoxin, [(1R,6R,13R,15R,17R)-13-benzyl-6-hydroxy-4,17-dimethyl-5-oxo-15-(prop-1-en-2-yl)-12,14,18-trioxapentacyclo[11.4.1.0^1,10.0^2,6.0^11,15]octadeca-3,8-dien-8-yl]methyl 2-(4-hydroxy-3-methoxyphenyl)acetate]
ability to run for longer distances at a higher rate (time running at percent maximum intensity) (RTX 6 μg/ml, 10 μl per ganglion, lumbar epidural L4/L5, at the time of femoral arterial occlusion, FIG. 1D): increased ability to run for longer distances at a higher rate
ability to run at 37 m/minute (time run at 37 m/min) (RTX 6 μg/ml, 10 μl per ganglion, lumbar epidural L4/L5, at the time of femoral arterial occlusion, fixed speed 37 m/minute, FIG. 1C): increased ability to run at 37 m/minute
running distance (RTX 6 μg/ml, 10 μl per ganglion, lumbar epidural L4/L5, at the time of femoral arterial occlusion, vs PAD+control, FIG. 1A): increased running distances
maximal running speed (RTX 6 μg/ml, 10 μl per ganglion, lumbar epidural L4/L5, at the time of femoral arterial occlusion, vs PAD+control, FIG. 1B): increased maximal running speed
exercise limitations associated with PAD (RTX administered 4 weeks after femoral arterial occlusion (after onset of PAD), before vs after treatment, FIG. 2): reduces exercise limitations; also recorded: reduced the exercise limitations
exercise limitations associated with PAD (RTX given at the time of femoral arterial occlusion, FIG. 1): reduces the exercise limitations
duration of the statistically significant improvements in exercise performance (RTX given at the time of femoral arterial occlusion, time after PAD surgery): lasted for months
